From US11884675B2, “Heterocyclic compounds as triggering receptor expressed on myeloid cells 2 agonists and methods of use” (AMGEN INC., priority 2020, dated 2024) come the findings set out here.

hTREM2, sequence (Q9NZC2 19-230): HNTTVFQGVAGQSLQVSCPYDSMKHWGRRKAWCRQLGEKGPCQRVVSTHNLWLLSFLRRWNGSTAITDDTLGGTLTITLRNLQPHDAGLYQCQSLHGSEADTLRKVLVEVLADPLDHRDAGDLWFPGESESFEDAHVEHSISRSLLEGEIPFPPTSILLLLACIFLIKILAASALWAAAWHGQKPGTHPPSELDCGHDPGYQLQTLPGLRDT
hTREM2, sequence (O43914 22-113 partner): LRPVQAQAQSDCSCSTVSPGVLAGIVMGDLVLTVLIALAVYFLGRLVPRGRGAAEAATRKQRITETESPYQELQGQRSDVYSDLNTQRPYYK

This assay has as its target hTREM2 (Homo sapiens, UniProt Q9NZC2). The assay can be described thus: TREM2 activity by cellular Syk phosphorylation (AlphaScreen/AlphaLISA) in TREM2/DAP12-HEK cells, used for Examples 1-305. Further details: expressed in transfected cells. It is filed as cell-based. To be noted: HEK293 Cells. The method in brief: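 Phospho-Syk (Tyr525/526) over total Syk quantified by AlphaScreen in lysates of cloned TREM2/DAP12-overexpressing HEK293 cells after 45 min compound treatment at room temperature, 1% final DMSO. Values expressed relative to 100 nM anti-TREM2 antibody (positive) and isotype IgG (negative) controls; curves fitted with 4-parameter logistic model.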
(Bead proximity is the source of the signal in Alpha formats.)
For `Cc1cnc2c(-c3ccc(Cl)cc3F)nc(N3CCO[C@@H](c4cnn(C5COC5)c4)C3)cc2n1` [Example 129, 5-(4-chloro-2-fluorophenyl)-2-methyl-7((2S)-2-(1-(3-oxetanyl)-1H-pyrazol-4-yl)-4-morpholinyl) pyrido[3,4-b]pyrazine], the EC50 – broadly, the concentration at which the effect is half-maximal – fell in the range of 50 to 500 nM and the “hTREM2 Emax” value was “++++ (Emax>250)”.

As to `Cc1nc2nc(N3CCO[C@@H](c4cnn(C)c4)C3)nc(C3CCC(C)(C)CC3)c2nc1C` [Example 130, 4-(4,4-dimethylcyclohexyl)-6,7-dimethyl-2-((2S)-2-(1-methyl-1H-pyrazol-4-yl)-4-morpholinyl) pteridine], the EC50 is not above 50 nM; the “hTREM2 Emax” value is “+ (Emax>45 and ≤100)”.

Regarding `Cc1nc2nc(N3CCO[C@@H](c4cnn(C)c4)C3)nc([C@H]3CC[C@@H](C(F)(F)F)CC3)c2nc1C` [Example 131, 6,7-dimethyl-2-((2S)-2-(1-methyl-1H-pyrazol-4-yl)-4-morpholinyl)-4-(cis-4-(trifluoromethyl)cyclohexyl)pteridine], the EC50 lay within 50 to 500 nM; the “hTREM2 Emax” value was “+++ (Emax>150 and ≤250)”.

On to `Cc1nc2nc(N3CCO[C@@H](c4cnn(C)c4)C3)nc([C@H]3CC[C@H](C(F)(F)F)CC3)c2nc1C` [Example 132, 6,7-dimethyl-2-((2S)-2-(1-methyl-1H-pyrazol-4-yl)-4-morpholinyl)-4-(trans-4-(trifluoromethyl)cyclohexyl)pteridine], for which the EC50 is not above 50 nM; the “hTREM2 Emax” value was “++ (Emax>100 and ≤150)”.

For the compound `Cc1nc2nc(N3CCO[C@@H](c4cnn(C)c4)C3)nc(C3CCC(F)(F)CC3)c2nc1C` [Example 133, 4-(4,4-difluorocyclohexyl)-6,7-dimethyl-2-((2S)-2-(1-methyl-1H-pyrazol-4-yl)-4-morpholinyl)pteridine], the EC50 is not above 50 nM; the “hTREM2 Emax” value is “+++ (Emax>150 and ≤250)”.

On to `Cc1nc2nc(N3CCO[C@@H](c4cnn(C)c4)C3)nc(C3CCCCC3)c2nc1C` [Example 134, 4-cyclohexyl-6,7-dimethyl-2-((2S)-2-(1-methyl-1H-pyrazol-4-yl)-4-morpholinyl)pteridine], for which the EC50 lay in the range of 50 to 500 nM; the “hTREM2 Emax” value was “+ (Emax>45 and ≤100)”.

Take `Cc1nc2nc(N3CCO[C@@H](c4cnn(C)c4)C3)nc([C@H]3CC[C@@H](C)CC3)c2nc1C` [Example 135, 6,7-dimethyl-4-(cis-4-methylcyclohexyl)-2-((2S)-2-(1-methyl-1H-pyrazol-4-yl)-4-morpholinyl)pteridine]: the EC50 is 50 to 500 nM; the “hTREM2 Emax” value was “+ (Emax>45 and ≤100)”.

As to `Cc1nc2nc(N3CCO[C@@H](c4cnn(C)c4)C3)nc([C@H]3CC[C@H](C)CC3)c2nc1C` [Example 136, 6,7-dimethyl-4-(trans-4-methylcyclohexyl)-2-((2S)-2-(1-methyl-1H-pyrazol-4-yl)-4-morpholinyl)pteridine], the EC50 is not above 50 nM; the “hTREM2 Emax” value is “+++ (Emax>150 and ≤250)”.

Consider `Cc1nc2nc(N3CCO[C@@H](c4cnn(C)c4)C3)nc(C3CCC4(CC3)CC4)c2nc1C` [Example 137, 6,7-dimethyl-2-((2S)-2-(1-methyl-1H-pyrazol-4-yl)-4-morpholinyl)-4-(spiro[2.5]octan-6-yl)pteridine], for which the EC50 is not above 50 nM; the “hTREM2 Emax” value was “+++ (Emax>150 and ≤250)”.

For the compound `Cc1nc2nc(N3CCO[C@@H](c4cnn(C5CC5)c4)C3)nc(C3CCC(F)(F)CC3)c2nc1C` [Example 138, 2-((2S)-2-(1-cyclopropyl-1H-pyrazol-4-yl)-4-morpholinyl)-4-(4,4-difluorocyclohexyl)-6,7-dimethylpteridine], the EC50 was not above 50 nM; the “hTREM2 Emax” value is “+++ (Emax>150 and ≤250)”.

In the case of `Cc1cc([C@H]2CN(c3nc(C4CCC(F)(F)CC4)c4nc(C)c(C)nc4n3)CCO2)ccn1` [Example 139, 4-(4,4-difluorocyclohexyl)-6,7-dimethyl-2-((2S)-2-(2-methyl-4-pyridinyl)-4-morpholinyl)pteridine], the EC50 was not above 50 nM; the “hTREM2 Emax” value was “+++ (Emax>150 and ≤250)”.

Regarding `Cc1nc2nc(N3CCO[C@@H](c4cnn(C)c4)C3)nc(C3CCCC3)c2nc1C` [Example 140, 4-cyclopentyl-6,7-dimethyl-2-((2S)-2-(1-methyl-1H-pyrazol-4-yl)-4-morpholinyl)pteridine], the EC50 is 50 to 500 nM; the “hTREM2 Emax” value was “++ (Emax>100 and ≤150)”.

As to `Cc1ccc2c(C3CCC(F)(F)CC3)nc(N3CCO[C@@H](c4cnn(C)c4)C3)nc2n1` [Example 141, 4-(4,4-difluorocyclohexyl)-7-methyl-2-((2S)-2-(1-methyl-1H-pyrazol-4-yl)-4-morpholinyl)pyrido [2,3-d]pyrimidine], the EC50 lay in the range of 50 to 500 nM; the “hTREM2 Emax” value was “++ (Emax>100 and ≤150)”.

For `Cc1ccc2c(n1)nc(N1CCO[C@@H](c3cnn(C)c3)C1)nc2[C@H]1CC[C@@H](C(F)(F)F)CC1` [Example 142, 7-methyl-2-((2S)-2-(1-methyl-1H-pyrazol-4-yl)-4-morpholinyl)-4-(cis-4-(trifluoromethyl)cyclohexyl)pyrido [2,3-d]pyrimidine], the EC50 was 3000 to 100000 nM; the “hTREM2 Emax” value was “++ (Emax>100 and ≤150)”.

Take `Cc1ccc2c(C3CCC(F)(F)CC3)nc(N3CCO[C@@H](c4cnn(C5CC5)c4)C3)nc2n1` [Example 143, 2-((2S)-2-(1-cyclopropyl-1H-pyrazol-4-yl)-4-morpholinyl)-4-(4,4-difluorocyclohexyl)-7-methylpyrido [2,3-d]pyrimidine]: the EC50 lay in the range of 50 to 500 nM; the “hTREM2 Emax” value was “+++ (Emax>150 and ≤250)”.

As to `Cc1ccc2c(n1)nc(N1CCO[C@@H](c3cnn(C4CC4)c3)C1)nc2[C@H]1CC[C@@H](C(F)(F)F)CC1` [Example 144, 2-((2S)-2-(1-cyclopropyl-1H-pyrazol-4-yl)-4-morpholinyl)-7-methyl-4-(cis-4-(trifluoromethyl)cyclohexyl)pyrido [2,3-d]pyrimidine], the EC50 lay in the range of 50 to 500 nM; the “hTREM2 Emax” value was “++ (Emax>100 and ≤150)”.

For `Cc1ccc2c(n1)nc(N1CCO[C@@H](c3cnn(C4CC4)c3)C1)nc2[C@H]1CC[C@H](C(F)(F)F)CC1` [Example 145, 2-((2S)-2-(1-cyclopropyl-1H-pyrazol-4-yl)-4-morpholinyl)-7-methyl-4-(trans-4-(trifluoromethyl)cyclohexyl)pyrido [2,3-d]pyrimidine], the EC50 was not above 50 nM; the “hTREM2 Emax” value is “+ (Emax>45 and ≤100)”.

Turning to `Cc1nc2nc(N3CCO[C@@H](c4cnn(C)c4)C3)nc(C3CC(F)(F)C3)c2nc1C` [Example 146, 4-(3,3-difluorocyclobutyl)-6,7-dimethyl-2-((2S)-2-(1-methyl-1H-pyrazol-4-yl)-4-morpholinyl) pteridine], the EC50 lay within 500 to 3000 nM; the “hTREM2 Emax” value is “++ (Emax>100 and ≤150)”.

On to `Cc1ccc2c(-c3ccc(Cl)cc3F)nc(N3CCO[C@@H](c4cnn(C)c4)C3)cc2c1` [Example 147, 1-(4-chloro-2-fluorophenyl)-6-methyl-3-((2S)-2-(1-methyl-1H-pyrazol-4-yl)-4-morpholinyl) isoquinoline], for which the EC50 was 3000 to 100000 nM and the “hTREM2 Emax” value is “++++ (Emax>250)”.

Take `Cc1ccc2c(-c3ccc(Cl)cc3F)nc(N3CCO[C@@H](c4cnn(C)c4)C3)cc2n1` [Example 148, 5-(4-chloro-2-fluorophenyl)-2-methyl-7-((2S)-2-(1-methyl-1H-pyrazol-4-yl)-4-morpholinyl)-1,6-naphthyridine]: the EC50 lay in the range of 50 to 500 nM; the “hTREM2 Emax” value is “+++ (Emax>150 and ≤250)”.

Turning to `COc1cc([C@H]2CN(c3cc4nc(C)ccc4c(-c4ccc(Cl)cc4F)n3)CCO2)ccn1` [Example 149, 5-(4-chloro-2-fluorophenyl)-7-((2S)-2-(2-methoxy-4-pyridinyl)-4-morpholinyl)-2-methyl-1,6-naphthyridine], the EC50 lay in the range of 50 to 500 nM and the “hTREM2 Emax” value was “++++ (Emax>250)”.

Take `Cc1ccc2c(-c3ccc(Cl)cc3F)nc(N3CCO[C@@H](c4cnn(C5CC5)c4)C3)cc2n1` [Example 150, 5-(4-chloro-2-fluorophenyl)-7-((2S)-2-(1-cyclopropyl-1H-pyrazol-4-yl)-4-morpholinyl)-2-methyl-1,6-naphthyridine]: the EC50 lay in the range of 50 to 500 nM and the “hTREM2 Emax” value was “++++ (Emax>250)”.

In the case of `Cc1cc([C@H]2CN(c3cc4nc(C)ccc4c(-c4ccc(Cl)cc4F)n3)CCO2)ccn1` [Example 151, 5-(4-chloro-2-fluorophenyl)-2-methyl-7-((2S)-2-(2-methyl-4-pyridinyl)-4-morpholinyl)-1,6-naphthyridine], the EC50 was in the range of 50 to 500 nM and the “hTREM2 Emax” value is “++++ (Emax>250)”.

On to `Cc1cc2c(-c3ccc(Cl)cc3F)nc(N3CCO[C@@H](c4cnn(C)c4)C3)cc2nc1C` [Example 152, 5-(4-chloro-2-fluorophenyl)-2,3-dimethyl-7-((2S)-2-(1-methyl-1H-pyrazol-4-yl)-4-morpholinyl)-1,6-naphthyridine], for which the EC50 is not above 50 nM and the “hTREM2 Emax” value is “++++ (Emax>250)”.

`Cc1ncc2c(-c3ccc(Cl)cc3F)cc(N3CCO[C@@H](c4cnn(C)c4)C3)cc2n1` [Example 153, 5-(4-chloro-2-fluorophenyl)-2-methyl-7-((2S)-2-(1-methyl-1H-pyrazol-4-yl)-4-morpholinyl) quinazoline]: the EC50 fell in the range of 50 to 500 nM; the “hTREM2 Emax” value was “+++ (Emax>150 and ≤250)”.

As to `Cc1cc([C@H]2CN(c3cc(-c4ccc(F)cc4F)c4cnc(C)nc4c3)CCO2)ccn1` [Example 154, 5-(2,4-difluorophenyl)-2-methyl-7-((2S)-2-(2-methyl-4-pyridinyl)-4-morpholinyl) quinazoline], the EC50 was in the range of 50 to 500 nM and the “hTREM2 Emax” value is “++++ (Emax>250)”.

Regarding `Cn1cc([C@H]2CN(c3cc(-c4ccc(Cl)cc4F)c4cccnc4n3)CCO2)cn1` [Example 155, 4-(4-chloro-2-fluorophenyl)-2-((2S)-2-(1-methyl-1H-pyrazol-4-yl)-4-morpholinyl)-1,8-naphthyridine], the EC50 was in the range of 500 to 3000 nM; the “hTREM2 Emax” value is “++ (Emax>100 and ≤150)”.
